Results: patent EP4039094A1, “NOVEL ANTIFUNGAL COMPOUNDS” (Max-Planck-Gesellschaft zur Förderung der Wissenschaften …, priority 2021, dated 2022)

Columns and labels:
[1] = target: T1, Stp1/Stp4/Stp3 subcomplex (Mycosarcoma maydis, UniProt A0A0D1C5E3+A0A0D1CU07+A0A0D1EAN2); experiment: Beta-Glo confirmatory assay (β-galactosidase expression) in NL73; assay type: cell-based, U. maydis; conditions: NL73 strain, Table 5; read-out: B-glo IC50
T1 sequence (A0A0D1CU07 29-515): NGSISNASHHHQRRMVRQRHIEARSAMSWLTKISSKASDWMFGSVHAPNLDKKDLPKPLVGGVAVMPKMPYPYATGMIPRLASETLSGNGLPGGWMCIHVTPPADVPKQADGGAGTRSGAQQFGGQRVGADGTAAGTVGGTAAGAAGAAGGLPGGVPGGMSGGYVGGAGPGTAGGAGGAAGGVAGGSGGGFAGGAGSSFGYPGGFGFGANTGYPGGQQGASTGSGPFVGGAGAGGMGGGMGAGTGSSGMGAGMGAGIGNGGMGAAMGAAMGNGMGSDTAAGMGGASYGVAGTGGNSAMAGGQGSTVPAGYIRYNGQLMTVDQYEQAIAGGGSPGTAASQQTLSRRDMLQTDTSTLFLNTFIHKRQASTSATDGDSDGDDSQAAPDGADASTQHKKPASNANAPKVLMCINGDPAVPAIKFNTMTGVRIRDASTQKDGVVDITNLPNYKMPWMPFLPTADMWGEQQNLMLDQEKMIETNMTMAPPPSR
T1 sequence (A0A0D1C5E3 24-129): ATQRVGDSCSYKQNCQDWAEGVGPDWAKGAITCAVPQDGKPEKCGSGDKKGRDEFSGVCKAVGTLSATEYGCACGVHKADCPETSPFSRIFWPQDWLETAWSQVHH
T1 sequence (A0A0D1EAN2 25-327): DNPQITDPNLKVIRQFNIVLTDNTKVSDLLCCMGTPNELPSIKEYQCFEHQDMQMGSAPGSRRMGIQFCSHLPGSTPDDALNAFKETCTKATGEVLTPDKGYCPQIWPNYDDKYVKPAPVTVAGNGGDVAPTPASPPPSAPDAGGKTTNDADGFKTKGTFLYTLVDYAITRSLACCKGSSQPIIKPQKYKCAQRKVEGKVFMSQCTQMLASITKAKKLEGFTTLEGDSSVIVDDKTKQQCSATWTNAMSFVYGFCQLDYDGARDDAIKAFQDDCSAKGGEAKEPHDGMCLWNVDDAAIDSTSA
Protocol: This system allows luminescence-based quantification of β-galactosidase expression in cells which serves as a readout for promoter activation by interacting complex members Stp1, Stp3 and Stp4. Overnight cultures of NL73 and NL70 strains were harvested as described above. Dilution series of compound stock solution were pre-dispensed into black 384-well assay plates (Corning 4513) using Echo520 Nanoliter dispenser starting from 10 µM with 3-fold dilution over 8 steps. In the viability setup, 15 µl of NL73 cell suspension were dispensed into the assay plates using Multidrop Combi. One column of the assay plate was filled with 15 µl of NL70 cell suspension. In the toxicity setup, 15 µl of NL70 cell suspension in low stringency medium were dispensed into the assay plates with one column being filled with 15 µl of NL70 cell suspension in high stringency medium. Plates were sealed with Breathe-Easy sealing membrane, lidded and incubated in a humid chamber over night at 30°C and 140 rpm in an Infors HT Multitron Pro. After approximately 19 h, plates were centrifuged for 1 min at 500 rpm. 4 µl of Beta-Glo assay solution were added using Multidrop Combi. The plates were sealed again and incubated for 2.5 h at room temperature, unlidded. Luminescence readout was determined on a Spectramax Paradigm detection platform for 0.2 s. Dose response data was analysed with Quattro Software Suite.

[2] = target: T1, Stp1/Stp4/Stp3 subcomplex; experiment: Alamar Blue viability assay in S. cerevisiae 2-hybrid strain NL73 (viability depends on Stp complex formation); assay type: cell-based, U. maydis; conditions: for activity in the Alamar Blue assay with NL73: result in words
From the text: To develop a screening platform based on Stp complex formation, a Saccharomyces cerevisiae 2-hybrid system was used. […] After co-transformation, reporter gene transcription is activated only if the two fusion proteins interact in the yeast nucleus. Moreover, the S. cerevisiae strain AH109 harbours the reporter genes ADE2 and HIS3, which encode for two enzymes that are crucial for adenine (Ade) and histidine (His) biosynthesis and thereby enable nutritional selection as a read-out for the interaction between proteins. In the following experiments, growth on high-stringency synthetic defined (SD) medium (SD -Leu -Trp -Ade -His) was used to identify if the complex members interact between them causing expression of ADE2 and HIS3. Additionally, strains were also grown on low-stringency medium (SD -Leu -Trp) to confirm their viability. […] All experiments were done with three independent transformants to exclude false positives due to spontaneous mutations.
The S. cerevisiae strain AH109 from Clontech (Saint-Germain-en-Laye, France) is auxotrophic for tryptophan, leucine, adenine and histidine. In addition, lacz is under control of the MEL1 UAS to be used as readout for quantitative β-galactosidase assays.
The resulting test strain NL73 (AD-Stp4/BD-Stp1/myc-Stp3) expresses the Stp1/Stp4/Stp3 subcomplex. NL73 carries the following three plasmids: pGBKT7-stp1: pGBKT7 vector expressing proteins fused to the GAL4 DNA binding domain (DNA-BD). pGBKT7 also contains the T7 promoter, a c-Myc epitope tag, and a MCS. The vector carries a Kanamycin resistance gene (Kanr) for selection in E. coli and the TRP1 nutritional marker for selection in yeast. pGAD-stp4: pGADT7 vector expressing proteins fused to a GAL4 activation domain (AD). The GAL4 AD fusion contains an N-terminal nuclear localization signal that targets the protein to the yeast nucleus, and a HA Tag, located between the GAL4 AD and the protein of interest. The vector carries an ampicillin resistance gene (Ampr) for selection in E. coli and a LEU2 nutritional marker for selection in yeast. pYEA-stp3-myc: pYEA vector expressing proteins under the control of the phosphoglycerate kinase promoter. The vector carries an ampicillin resistance gene (Ampr) for selection in E. coli and an ADE2 nutritional marker for selection in yeast. As control strain, NL70 containing empty vectors was generated (AH109Δabc9 pGAD::LEU2 pGBK::TRP1 pYEA::ADE2).
After that, 25 µl of NL73 cell suspension were dispensed into the assay plates using Multidrop Combi (Thermofisher Scientific) giving a final screening concentration of 10 µM. One column of the assay plate was filled with 25 µl of NL70 control strain cell suspension as negative control. Plates were sealed with Breathe-Easy sealing membrane (Sigma, Z380059), lidded and incubated in a humid chamber over night at 30°C and 140 rpm in an HT Multitron Pro (Infors). […] For the viability assay, the alamar Blue HS Cell Viability reagent (Invitrogen, #A50101) was pre-diluted using an equal amount of dVE-H2O and 5 µl of diluted Alamar Blue were added to the screening plates using Multidrop Combi. The plates were sealed again and incubated for 4 h at room temperature, unlidded. […] Screening data was normalized to DMSO-treated NL73 cells (that received DMSO in the same concentration as in samples where compounds dissolved in DMSO were added) being 100% and DMSO-treated NL70 cells representing 0% viability and analyzed with Quattro Software Suite (Quattro Research GmbH).

[3] = NL73 strain, Table 5, read-out: A-blue IC50

| Compound | IC50 [1] [nM] | IC50 [2, 3] [nM] | activity in the Alamar Blue assay with NL73 [2] | IC50 ([2]; inhibitory activity on NL73 viability, Table 6, read-out: IC50) [nM] | IC50 ([2]; read-out: IC50 in the Alamar Blue viability assay of NL73) [nM] |
| --- | --- | --- | --- | --- | --- |
| [O-][n+]1c(-c2ccc(C(F)(F)F)cc2)c(-c2ccc(C(F)(F)F)cc2)n2ccccc21 [Compound 2-A] | 230 | 20 | – | – | – |
| Cc1ccc(-c2c(-c3ccc(C)cc3)[n+]([O-])c3ccccn23)cc1 [Compound 1-A] | 760 | 140 | nanomolar potency | – | – |
| Cc1ccc(CSc2nc(=O)n(C3CCCC3)c3c2CCC3)cc1 [Compound 1-C] | – | – | active in the nanomolar range | 670 | – |
| CC(C)n1ncc2cc(NS(=O)(=O)c3cc(F)ccc3F)cnc21 [Compound 1-B] | – | – | – | – | 2500 |
| O=[N+]([O-])c1ccc(-c2c(-c3ccccc3)n3ccccc3[n+]2[O-])cc1 [Compound 3-A] | 860 | 250 | – | – | – |
